US10167507B2, “Metabolic diseases-related odorant receptor genes and use thereof” (INDUSTRY-ACADEMIC COOPERATION FOUNDATION, YONSEI UNIVERSITY, priority 2010, dated 2019)

Columns and labels:
[1] = test system: AKT (v-akt murine thymoma viral oncogene); assay: Western blotting, protein phosphorylation of AKT; format: in vivo, mouse
Description: (§5) A certain amount of visceral fat or liver tissues in mortar was homogenized with liquid nitrogen and cell lysis buffer. The mixture was transferred to a new tube, followed by vortexing. After centrifugation at 13,000×g for 20 min at 4° C., the middle layer of the tube was obtained and proteins were quantified by Bradford method. 50 μg of protein was electrophorized to SDS polyacrylamide gel, followed by electroblotting to PVDF hyper film. The protein was reacted using an appropriate antibody for the protein and detected by ECL, whereby insulin resistance, adipocyte differentiation, lipid metabolism or energy consumption-related mechanism of phytochemical components was investigated in the protein level.
(§6) In order to verify this, protein phosphorylations of HSL (hormone sensitive lipase), CREB (cAMP-responsive element binding protein) and AKT (v-akt murine thymoma viral oncogene) were evaluated by western blotting analysis.

[2] = test system: HSL (hormone sensitive lipase); assay: Western blotting, protein phosphorylation of HSL; format: in vivo, mouse
Description: as §5, §6

[3] = test system: olfactory receptors in liver tissue; assay: OligoDNA microarray, liver tissue of HFD mice fed odor components; format: in vivo, mouse
Excerpt: (§1) The obesity-inducing control diet used in the test was high-fat diet (HFD: 40% fat calorie, 17 g lard+3% corn oil/100 g diet). Diets supplemented with an odor component had the same composition as HFD, except that each of various types of odor components (indol-3-carbinol, oleuropein, cedryl acetate, α-cedrene and piperine) having anti-obesity efficacy was contained in 0.02-0.05% concentration. Indo)-3-carbinol, oleuropein, cedryl acetate, a-cedrene and piperine were purchased from Sigma-Aldrich.
(§2) After adding Trizol agent to visceral fat or liver tissue, the mixture was homogenized and centrifuged at 12,000×g for 10 min at 4° C. The supernatant was transferred to a new tube to remove fat layer. Then, 200 μl of chloroform was added to the tube, followed by vortexing. The same procedure was repeated twice and then the supernatant was transferred to a new tube, followed by addition of isopropanol and the supernatant at 1:1 ratio. The mixture was vigorously shaken 10 times and then incubated for 10 min at room temperature, followed by centrifugation at 12,000×g for 10 min at 4° C. to remove the supernatant. After adding 1 mL of 70% ethanol to the remaining pellet, it was centrifuged at 7,500×g for 5 min at 4° C. After removing the ethanol, the RNA pellet contained in the tube was dried for 5 min at 4° C. and dissolved in nuclease-free water. The RNA sample concentration was measured at a wavelength of 260 nm and 280 nm using a UV/VIS spectrophotometer (Beckman coulter, DU730) and the integrity of RNA sample was verified by agarose gel electrophoresis.
(§3) DNA microarry analysis using RNAs of visceral fat and liver tissue was conducted by GENOCHECK (CO., LTD.). RNA samples were pooled from 10 mice in each experimental group and subjected to microarray experiments in triplicate for the test of reproducibility. NimbleGen Mouse Whole Oligo 12-plex chip used in this experiment was prepared by triplicating 42,576 genes using Mouse Genome Build 8 as database. In NimbleGen mouse Whole Oligo 12-plex chip, 137,090 spots excluded control group gene were spotted by 16 μm×16 μm size in 17.4 mm×13 mm size. 42,576 oligo included […] genes which are known their functions and 5,431 transcripts and EST sequences which are unknown their functions. 10-50 μg of total RNA was added in oligo-dT primer, reverse transcriptase, dNTP, Cy3-dUTP and Cy5-dUTP, and reverse-transcripted according to the kit manufacturer's recommendations. The resultant was purified using cartridge, dried and dissolved in hybridization buffer solution (30 μL). The microarray was placed in hybridization cassette, heated at 95-100° C. for 5 min, mixed independently to each of RNA labeled with Cy3 and Cy5, and hybridized at 45° C. for 18 hrs. The slide was washed twice in solution containing 1×SSC and 0.1% SDS for 5 min, washed in 1×SSC for 5 min and dried to analyze.
(§4) The profile for olfactory receptors in which the expression was regulated by more than 2-fold change due to intake of odor components at each tissue was shown in Tables 5. As a result, it was determined that various types of odor components having anti-obesity efficacy regulated a plurality of olfactory receptors in peripheral tissues.

[4] = test system: olfactory receptors in visceral fat tissue; assay: OligoDNA microarray, visceral fat tissue of HFD mice fed odor components; format: in vivo, mouse
Description: DNA microarry analysis using RNAs of visceral fat and liver tissue was conducted by GENOCHECK (CO., LTD.). RNA samples were pooled from 10 mice in each experimental group and subjected to microarray experiments in triplicate for the test of reproducibility. NimbleGen Mouse Whole Oligo 12-plex chip used in this experiment was prepared by triplicating 42,576 genes using Mouse Genome Build 8 as database. In NimbleGen mouse Whole Oligo 12-plex chip, 137,090 spots excluded control group gene were spotted by 16 μm×16 μm size in 17.4 mm×13 mm size. 42,576 oligo included 137,145 genes which are known their functions and 5,431 transcripts and EST sequences which are unknown their functions. 10-50 μg of total RNA was added in oligo-dT primer, reverse transcriptase, dNTP, Cy3-dUTP and Cy5-dUTP, and reverse-transcripted according to the kit manufacturer's recommendations. The resultant was purified using cartridge, dried and dissolved in hybridization buffer solution (30 μL). The microarray was placed in hybridization cassette, heated at 95-100° C. for 5 min, mixed independently to each of RNA labeled with Cy3 and Cy5, and hybridized at 45° C. for 18 hrs. The slide was washed twice in solution containing 1×SSC and 0.1% SDS for 5 min, washed in 1×SSC for 5 min and dried to analyze.

[5] = test system: obesity and metabolic diseases-related genes in visceral fat tissue; assay: RT-PCR of obesity and metabolic diseases-related genes, visceral fat tissue; format: in vivo, mouse; settings: odor component-supplemented group to the HFD control group
Description: After adding 1 mL of Trizol agent (Invitrogen, USA) per 0.1 g of visceral fat or liver tissues, the mixture was homogenized and centrifuged at 12,000×g for 10 min at 4° C. The supernatant was transferred to a new tube and 200 μl of chloroform was added to the tube, followed by vortexing. The same procedure was repeated twice and then the supernatant was transferred to a new tube, followed by addition of isopropanol and the supernatant at 1:1 ratio. The mixture was vigorously shaken 10 times and then incubated for 10 min at room temperature, followed by centrifugation at 12,000×g for 10 min at 4° C. to remove the supernatant. After adding 1 mL of 70% ethanol to the remaining pellet, it was centrifuged at 7,500×g for 5 min at 4° C. After removing the ethanol, the RNA pellet contained in the tube was dried for 5 min at 4° C. and dissolved in nuclease-free water. The RNA sample concentration was measured at a wavelength of 260 nm and 280 nm using a UV/VIS spectrophotometer (Beckman coulter, DU730) and the integrity of RNA sample was verified by agarose gel electrophoresis. The RNA sample obtained from the visceral fat or liver tissues was trasnscribed using oligo dT primer and reverse transcriptase (GIBCO BRL, Gaithersburg, Md., USA) to synthesize cDNA. The PCR amplification was performed using the cDNA as templates and primers complementary to cDNA [NT] flanking sequence. 1 μl of the amplified products were resolved on agarose gel electrophoresis to verify DNA band.

[6] = test system: CREB (cAMP-responsive element binding protein); assay: Western blotting, protein phosphorylation of CREB; format: in vivo, mouse
Description: as §5, §6

[7] = test system: olfactory receptors in visceral fat and liver tissues; assay: OligoDNA microarray, visceral fat and liver tissues of HFD mice fed odor components (tissue not separated in text); format: in vivo; settings: supplemented to mouse fed high-fat diet for 10 weeks
Excerpt: as §1, §2, §3, §4

[8] = odor component-supplemented group to the HFD control group
[9] = western blotting, compared to the HFD control group
[10] = supplemented to HFD-fed mouse 10 weeks

CC(=O)O[C@]1(C)CC[C@@]23C[C@@H]1C(C)(C)[C@@H]2CC[C@H]3C [cedryl acetate]
AKT phosphorylation, increase (change rate) [1, 8]: 33% increase | phosphorylation of AKT [1, 9]: significantly increased | HSL phosphorylation, increase (change rate) [2, 8]: 46% increase | phosphorylation of HSL [2, 9]: significantly increased | expression of olfactory receptor 38 [3]: increased | expression of olfactory receptor 77 [3]: decreased | expression of olfactory receptor 275 [3]: increased | expression of olfactory receptor 878 [3]: increased | Olfr38 expression fold change to HFD group [3, 10]: 2.39 | Olfr77 expression fold change to HFD group [3, 10]: 0.5 | Olfr275 expression fold change to HFD group [3, 10]: 2.64 | Olfr305 expression fold change to HFD group [3, 10]: 2.21 | Olfr878 expression fold change to HFD group [3, 10]: 2.76 | Olfr77 expression fold change to HFD group ([3]; supplemented to HFD-fed mouse 10 weeks, listed as Cedryl acetate): 0.50 | expression of olfactory receptor 290 [4]: increased | expression of olfactory receptor 341 [4]: decreased | expression of olfactory receptor 380 [4]: increased | expression of olfactory receptor 1104 [4]: increased | expression of olfactory receptor 1165 [4]: decreased | Olfr290 expression fold change to HFD group [4, 10]: 2.40 | Olfr341 expression fold change to HFD group [4, 10]: 0.32 | Olfr380 expression fold change to HFD group [4, 10]: 2.14 | Olfr417 expression fold change to HFD group [4, 10]: 0.42 | Olfr618 expression fold change to HFD group [4, 10]: 0.43 | Olfr663 expression fold change to HFD group [4, 10]: 2.04 | Olfr1058 expression fold change to HFD group [4, 10]: 2.18 | Olfr1104 expression fold change to HFD group [4, 10]: 3.22 | Olfr1123 expression fold change to HFD group [4, 10]: 2.64 | Olfr1125 expression fold change to HFD group [4, 10]: 2.07 | Olfr1136 expression fold change to HFD group [4, 10]: 0.43 | Olfr1157 expression fold change to HFD group [4, 10]: 0.46 | Olfr1165 expression fold change to HFD group [4, 10]: 0.36 | Olfr1442 expression fold change to HFD group [4, 10]: 2.18 | C/EBPα gene expression, decrease (change rate) [5]: 36% decrease | CPT1 gene expression, increase (change rate) [5]: 47% increase^ | FAS gene expression, decrease (change rate) [5]: 43% decrease | IL-6 gene expression, decrease (change rate) [5]: 74% decrease | PGC1α gene expression, increase (change rate) [5]: 57% increase^ | PPARγ2 gene expression, decrease (change rate) [5]: 25% decrease | SIRT1 gene expression, increase (change rate) [5]: 650% increase ^ | TNFα gene expression, decrease (change rate) [5]: 99% decrease | UCP1 gene expression, increase (change rate) [5]: 899% increase ^ | UCP3 gene expression, increase (change rate) [5]: 65% increase^ | aP2 gene expression, decrease (change rate) [5]: 33% decrease | CREB phosphorylation, increase (change rate) [6, 8]: 39% increase | phosphorylation of CREB [6, 9]: significantly increased | expression of olfactory receptor 38 increased [7]: more than 2 fold change | expression of olfactory receptor 77 decreased [7]: more than 2 fold change | expression of olfactory receptor 275 increased [7]: more than 2 fold change | expression of olfactory receptor 290 increased [7]: more than 2 fold change | expression of olfactory receptor 305 increased [7]: more than 2 fold change | expression of olfactory receptor 341 decreased [7]: more than 2 fold change | expression of olfactory receptor 380 increased [7]: more than 2 fold change | expression of olfactory receptor 417 decreased [7]: more than 2 fold change | expression of olfactory receptor 618 decreased [7]: more than 2 fold change | expression of olfactory receptor 663 increased [7]: more than 2 fold change | expression of olfactory receptor 878 increased [7]: more than 2 fold change | expression of olfactory receptor 1058 increased [7]: more than 2 fold change | expression of olfactory receptor 1104 increased [7]: more than 2 fold change | expression of olfactory receptor 1123 increased [7]: more than 2 fold change | expression of olfactory receptor 1125 increased [7]: more than 2 fold change | expression of olfactory receptor 1136 decreased [7]: more than 2 fold change | expression of olfactory receptor 1157 decreased [7]: more than 2 fold change | expression of olfactory receptor 1165 decreased [7]: more than 2 fold change | expression of olfactory receptor 1442 increased [7]: more than 2 fold change

OCc1c[nH]c2ccccc12 [Indole-3 carbinol]
Olfr16 expression fold change to HFD group [3, 10]: 0.47 | Olfr116 expression fold change to HFD group [3, 10]: 2.12 | Olfr178 expression fold change to HFD group [3, 10]: 2.06 | Olfr196 expression fold change to HFD group [3, 10]: 0.45 | Olfr259 expression fold change to HFD group [3, 10]: 0.50 | Olfr290 expression fold change to HFD group [3, 10]: 2.11 | Olfr466 expression fold change to HFD group [3, 10]: 0.49 | Olfr686 expression fold change to HFD group [3, 10]: 0.35 | Olfr1045 expression fold change to HFD group [3, 10]: 0.45 | Olfr1153 expression fold change to HFD group [3, 10]: 2.82 | Olfr1216 expression fold change to HFD group [3, 10]: 0.41 | Olfr1329 expression fold change to HFD group [3, 10]: 0.48 | Olfr1337 expression fold change to HFD group [3, 10]: 0.49 | Olfr380 expression fold change to HFD group [4, 10]: 2.20 | Olfr909 expression fold change to HFD group [4, 10]: 3.45 | Olfr972 expression fold change to HFD group [4, 10]: 0.43 | Olfr1093 expression fold change to HFD group [4, 10]: 0.42 | Olfr1165 expression fold change to HFD group [4, 10]: 0.39 | Olfr1462 expression fold change to HFD group [4, 10]: 2.26

CC1=CC[C@@]23C[C@@H]1C(C)(C)[C@@H]2CC[C@H]3C [α-cedrene]
expression of olfactory receptor 38 [3]: increased | expression of olfactory receptor 878 [3]: increased | expression of olfactory receptor 1045 [3]: decreased | Olfr38 expression fold change to HFD group [3, 10]: 3.83 | Olfr878 expression fold change to HFD group [3, 10]: 5.87 | Olfr1045 expression fold change to HFD group [3, 10]: 0.43 | Olfr1222 expression fold change to HFD group [3, 10]: 2.15 | expression of olfactory receptor 38 increased [7]: more than 2 fold change | expression of olfactory receptor 878 increased [7]: more than 2 fold change | expression of olfactory receptor 1045 decreased [7]: more than 2 fold change | expression of olfactory receptor 1222 increased [7]: more than 2 fold change
